Results from ChEMBL document CHEMBL1201862, “PubChem BioAssay data set” (2004).
Calls of active or inactive are those of the source.

Key:
[1] = target: Protein disulfide-isomerase (Homo sapiens, UniProt P07237); test: inhibition of PDI-driven insulin aggregation – biochemical, turbidity, absorbance, cherry-picked samples, dose response (AID 602350); format: functional
Melanocortin receptor 4 = Melanocortin receptor 4 (Homo sapiens, UniProt P32245); test: inhibitors of MC4R cAMP signaling – cell-based, TR-FRET, biased antagonists, dose response (AID 602298); format: functional;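 also: antagonist potency against agonist-stimulated cAMP production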
[2] = cAMP pathway inhibition in counterscreen cell line – TR-FRET cAMP detection, counter-screen for MC4R biased antagonist project, dose response (AID 602305); format: functional, cell-based;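 also: U2OS cells stimulated with forskolin near its EC80 as the cAMP inducer; potency is for inhibition of forskolin-stimulated cAMP signaling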
Prothrombin = Prothrombin (Bos taurus, UniProt P00735); test: thrombin protease inhibitors – biochemical, fluorescence polarization, uHTS hits, dose response (AID 602369); format: functional
[3] = Luminescence Cell-Based Dose Response HTS to Identify Inhibitors of 5'UTR Stem-Loop Driven Prion Protein mRNA Translation in H4 Neuroglioblastoma Cells. [Related pubchem assays: 1827 (Project Summary), 1813 (Primary HTS)]; format: functional
[4] = general cell-killing toxicity readout – plate reader, dry powder samples, cytotoxicity control for PAX8 inhibitor project, dose response (AID 743021); format: functional, cell-based
[5] = alpha-synuclein stem-loop luciferase translation blockers – H4 neuroglioma cells, luminescence, confirmation (AID 1988); format: functional, cell-based
Paired box protein Pax-8 = Paired box protein Pax-8 (Homo sapiens, UniProt Q06710); test: PAX8 transcriptional activity inhibition in RMG-I – RMG-I cells, luciferase, cherry-pick, dose response (AID 687027); format: functional, cell-based;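 also: luciferase reporter driven by Pax8 target thyroperoxidase promoter measured by SteadyGlo luminescence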
[6] = target: 26S proteasome non-ATPase regulatory subunit 14 (Homo sapiens, UniProt O00487); test: inhibition of proteasome subunit RPN11 – biochemical, fluorescence polarization, uHTS hits, confirmation (AID 602368); format: functional
[7] = Counterscreen for activators of the function of SWI/SNF related, matrix associated, actin dependent regulator of chromatin, subfamily a, member 2 (SMARCA2, BRM): Luminescence-based cell-based high throughput dose response assay to identify non-selective compounds using the VP16 reporter assay.; format: functional
[8] = luciferase reporter signal suppression in cells – H4 neuroglioma cells, luminescence, dose response (AID 1990); format: functional, cell-based
[9] = target: SWI/SNF-related matrix-associated actin-dependent regulator of chromatin subfamily A member 2 (Homo sapiens, UniProt P51531); test: Luminescence-based cell-based high throughput dose response assay to identify activators of the function of SWI/SNF related, matrix associated, actin dependent regulator of chromatin, subfamily a, member 2 (SMARCA2, BRM).; format: functional
[10] = target: 72 kDa type IV collagenase (Homo sapiens, UniProt P08253); test: Dose Response validation of uHTS RPN11 inhibitor hits using a MMP-2 Fluorescence assay.; format: functional
[11] = target: T1, DNA dC->dU-editing enzyme APOBEC-3G (Homo sapiens, UniProt Q9HC16); test: inhibition of APOBEC3G ssDNA deamination – biochemical, fluorescence, single-stranded DNA substrate, SAR follow-up (AID 602136); format: functional; details: read-out: IC50_Mean
[12] = target: T2, DNA dC->dU-editing enzyme APOBEC-3A (Homo sapiens, UniProt P31941); test: SAR analysis of small molecule inhibitors of APOBEC3A DNA Deaminase via a fluorescence-based single-stranded DNA deaminase assay - Set 2.; format: functional; details: read-out: IC50_Mean
[13] = target: T2, DNA dC->dU-editing enzyme APOBEC-3A; test: SAR analysis of small molecule inhibitors of APOBEC3A DNA Deaminase via a fluorescence-based single-stranded DNA deaminase assay.; format: functional; details: read-out: IC50_Mean
[14] = target: T2, DNA dC->dU-editing enzyme APOBEC-3A; test: A3A deaminase inhibition for selectivity – biochemical, dose response (AID 504722); format: functional
[15] = target: T1, DNA dC->dU-editing enzyme APOBEC-3G; test: SAR analysis of small molecule inhibitors of APOBEC3G DNA Deaminase via a fluorescence-based single-stranded DNA deaminase assay - Set 2.; format: functional; details: read-out: IC50_Mean
[16] = target: T1, DNA dC->dU-editing enzyme APOBEC-3G; test: Dose Response confirmation of small molecule APOBEC3G DNA Deaminase Inhibitors via a fluorescence-based single-stranded DNA deaminase assay. [Related pubchem assays (depositor defined):AID493012, AID493028]; format: functional
ORF 73 = ORF 73 (Human herpesvirus 8, UniProt O40947); test: KSHV LANA DNA-binding disruption – biochemical, fluorescence polarization, cherry-picked samples, dose response (AID 504725); design: species or system Human gammaherpesvirus 8;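 also: fluorescence polarization of a labeled DNA duplex reporting LANA DNA binding; potency is for inhibitors that block LANA binding to the DNA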
[17] = target: Benomyl/methotrexate resistance protein (Candida albicans, UniProt P28873); test: Candida albicans Mdr1 pump inhibition curves – singleplex, Cherry Pick1 hits, dose response (AID 588608); format: functional
[18] = target: Multidrug resistance protein CDR2 (Candida albicans (strain SC5314 / ATCC MYA-2876) (Yeast), UniProt P78595); test: inhibition of Nile Red efflux via Candida CDR2 – S. cerevisiae AD1-8u, singleplex, Cherry Pick1 hits, dose response (AID 588604); format: functional

T1 sequence (Q9HC16 whole entry): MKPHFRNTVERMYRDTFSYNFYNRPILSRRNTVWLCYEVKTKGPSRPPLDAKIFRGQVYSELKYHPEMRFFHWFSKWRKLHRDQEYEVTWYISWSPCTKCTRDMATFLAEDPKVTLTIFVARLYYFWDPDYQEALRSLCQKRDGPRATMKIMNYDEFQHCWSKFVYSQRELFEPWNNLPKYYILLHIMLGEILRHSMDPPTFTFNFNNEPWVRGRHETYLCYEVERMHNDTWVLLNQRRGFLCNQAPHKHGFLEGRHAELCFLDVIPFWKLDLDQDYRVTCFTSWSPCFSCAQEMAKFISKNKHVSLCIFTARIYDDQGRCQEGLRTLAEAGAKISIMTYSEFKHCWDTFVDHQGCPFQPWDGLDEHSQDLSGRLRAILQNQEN
T2 sequence (P31941 whole entry): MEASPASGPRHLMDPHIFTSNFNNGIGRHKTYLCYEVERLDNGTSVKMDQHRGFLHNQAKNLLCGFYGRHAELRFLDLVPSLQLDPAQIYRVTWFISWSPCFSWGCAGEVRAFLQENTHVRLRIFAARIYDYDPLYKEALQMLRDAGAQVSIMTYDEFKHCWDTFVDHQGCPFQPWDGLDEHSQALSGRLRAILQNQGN
Chain of Benomyl/methotrexate resistance protein (P28873 whole entry): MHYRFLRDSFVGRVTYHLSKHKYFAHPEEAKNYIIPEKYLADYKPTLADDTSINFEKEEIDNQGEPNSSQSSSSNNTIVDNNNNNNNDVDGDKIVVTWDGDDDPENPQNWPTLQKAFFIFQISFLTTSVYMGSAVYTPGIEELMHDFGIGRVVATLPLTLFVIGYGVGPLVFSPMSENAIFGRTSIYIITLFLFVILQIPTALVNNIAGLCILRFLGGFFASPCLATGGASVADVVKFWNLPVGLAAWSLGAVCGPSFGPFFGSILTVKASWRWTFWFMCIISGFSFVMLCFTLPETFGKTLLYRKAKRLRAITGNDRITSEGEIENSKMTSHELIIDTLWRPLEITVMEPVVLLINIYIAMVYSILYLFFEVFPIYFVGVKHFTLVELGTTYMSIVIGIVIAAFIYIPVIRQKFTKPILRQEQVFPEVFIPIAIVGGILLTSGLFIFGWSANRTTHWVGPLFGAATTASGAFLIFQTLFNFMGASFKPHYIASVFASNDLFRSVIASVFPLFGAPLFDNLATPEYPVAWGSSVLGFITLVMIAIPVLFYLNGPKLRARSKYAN
Chain of Paired box protein Pax-8 (Q06710 whole entry): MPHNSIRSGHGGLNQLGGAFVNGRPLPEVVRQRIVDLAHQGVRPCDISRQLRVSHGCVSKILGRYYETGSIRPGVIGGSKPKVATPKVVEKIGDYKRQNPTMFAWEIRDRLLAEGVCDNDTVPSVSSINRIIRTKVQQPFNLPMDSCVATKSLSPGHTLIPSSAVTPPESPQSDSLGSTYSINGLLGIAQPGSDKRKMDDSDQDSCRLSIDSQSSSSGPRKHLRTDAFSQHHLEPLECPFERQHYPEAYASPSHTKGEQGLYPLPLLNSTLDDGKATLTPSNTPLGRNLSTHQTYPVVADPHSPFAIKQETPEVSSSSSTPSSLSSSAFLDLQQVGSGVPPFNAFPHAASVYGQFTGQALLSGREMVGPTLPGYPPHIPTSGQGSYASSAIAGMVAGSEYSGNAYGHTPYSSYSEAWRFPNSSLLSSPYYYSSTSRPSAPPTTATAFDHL
Chain of ORF 73 (O40947 whole entry): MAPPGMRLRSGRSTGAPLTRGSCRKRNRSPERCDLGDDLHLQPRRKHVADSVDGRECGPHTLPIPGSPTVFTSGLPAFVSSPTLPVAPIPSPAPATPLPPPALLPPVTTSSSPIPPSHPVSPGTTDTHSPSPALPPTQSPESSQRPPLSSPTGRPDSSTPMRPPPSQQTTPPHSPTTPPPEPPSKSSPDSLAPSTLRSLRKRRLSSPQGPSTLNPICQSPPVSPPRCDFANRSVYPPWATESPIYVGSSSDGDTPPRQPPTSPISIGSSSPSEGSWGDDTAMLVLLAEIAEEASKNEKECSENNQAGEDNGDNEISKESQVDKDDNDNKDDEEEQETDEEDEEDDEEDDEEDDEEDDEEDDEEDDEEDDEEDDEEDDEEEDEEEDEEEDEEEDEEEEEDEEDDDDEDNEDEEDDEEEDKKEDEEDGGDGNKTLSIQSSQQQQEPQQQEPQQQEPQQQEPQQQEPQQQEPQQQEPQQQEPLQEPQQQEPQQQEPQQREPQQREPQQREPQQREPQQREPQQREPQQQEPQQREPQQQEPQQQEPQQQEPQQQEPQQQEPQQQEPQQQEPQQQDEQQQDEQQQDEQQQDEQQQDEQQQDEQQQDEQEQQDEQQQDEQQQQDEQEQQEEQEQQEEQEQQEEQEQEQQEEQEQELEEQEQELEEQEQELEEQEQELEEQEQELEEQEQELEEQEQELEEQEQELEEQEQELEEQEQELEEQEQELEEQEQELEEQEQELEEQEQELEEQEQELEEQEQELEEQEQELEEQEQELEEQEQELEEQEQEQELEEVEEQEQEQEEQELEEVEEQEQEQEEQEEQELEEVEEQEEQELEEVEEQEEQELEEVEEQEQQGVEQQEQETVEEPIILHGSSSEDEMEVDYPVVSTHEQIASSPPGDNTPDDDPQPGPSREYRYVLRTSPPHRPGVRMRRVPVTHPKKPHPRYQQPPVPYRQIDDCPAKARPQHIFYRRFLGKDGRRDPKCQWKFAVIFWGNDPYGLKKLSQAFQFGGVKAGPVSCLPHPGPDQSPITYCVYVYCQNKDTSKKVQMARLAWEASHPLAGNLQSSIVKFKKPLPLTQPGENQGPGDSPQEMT
Chain of SWI/SNF-related matrix-associated actin-dependent regulator of chromatin subfamily A member 2 (P51531 whole entry): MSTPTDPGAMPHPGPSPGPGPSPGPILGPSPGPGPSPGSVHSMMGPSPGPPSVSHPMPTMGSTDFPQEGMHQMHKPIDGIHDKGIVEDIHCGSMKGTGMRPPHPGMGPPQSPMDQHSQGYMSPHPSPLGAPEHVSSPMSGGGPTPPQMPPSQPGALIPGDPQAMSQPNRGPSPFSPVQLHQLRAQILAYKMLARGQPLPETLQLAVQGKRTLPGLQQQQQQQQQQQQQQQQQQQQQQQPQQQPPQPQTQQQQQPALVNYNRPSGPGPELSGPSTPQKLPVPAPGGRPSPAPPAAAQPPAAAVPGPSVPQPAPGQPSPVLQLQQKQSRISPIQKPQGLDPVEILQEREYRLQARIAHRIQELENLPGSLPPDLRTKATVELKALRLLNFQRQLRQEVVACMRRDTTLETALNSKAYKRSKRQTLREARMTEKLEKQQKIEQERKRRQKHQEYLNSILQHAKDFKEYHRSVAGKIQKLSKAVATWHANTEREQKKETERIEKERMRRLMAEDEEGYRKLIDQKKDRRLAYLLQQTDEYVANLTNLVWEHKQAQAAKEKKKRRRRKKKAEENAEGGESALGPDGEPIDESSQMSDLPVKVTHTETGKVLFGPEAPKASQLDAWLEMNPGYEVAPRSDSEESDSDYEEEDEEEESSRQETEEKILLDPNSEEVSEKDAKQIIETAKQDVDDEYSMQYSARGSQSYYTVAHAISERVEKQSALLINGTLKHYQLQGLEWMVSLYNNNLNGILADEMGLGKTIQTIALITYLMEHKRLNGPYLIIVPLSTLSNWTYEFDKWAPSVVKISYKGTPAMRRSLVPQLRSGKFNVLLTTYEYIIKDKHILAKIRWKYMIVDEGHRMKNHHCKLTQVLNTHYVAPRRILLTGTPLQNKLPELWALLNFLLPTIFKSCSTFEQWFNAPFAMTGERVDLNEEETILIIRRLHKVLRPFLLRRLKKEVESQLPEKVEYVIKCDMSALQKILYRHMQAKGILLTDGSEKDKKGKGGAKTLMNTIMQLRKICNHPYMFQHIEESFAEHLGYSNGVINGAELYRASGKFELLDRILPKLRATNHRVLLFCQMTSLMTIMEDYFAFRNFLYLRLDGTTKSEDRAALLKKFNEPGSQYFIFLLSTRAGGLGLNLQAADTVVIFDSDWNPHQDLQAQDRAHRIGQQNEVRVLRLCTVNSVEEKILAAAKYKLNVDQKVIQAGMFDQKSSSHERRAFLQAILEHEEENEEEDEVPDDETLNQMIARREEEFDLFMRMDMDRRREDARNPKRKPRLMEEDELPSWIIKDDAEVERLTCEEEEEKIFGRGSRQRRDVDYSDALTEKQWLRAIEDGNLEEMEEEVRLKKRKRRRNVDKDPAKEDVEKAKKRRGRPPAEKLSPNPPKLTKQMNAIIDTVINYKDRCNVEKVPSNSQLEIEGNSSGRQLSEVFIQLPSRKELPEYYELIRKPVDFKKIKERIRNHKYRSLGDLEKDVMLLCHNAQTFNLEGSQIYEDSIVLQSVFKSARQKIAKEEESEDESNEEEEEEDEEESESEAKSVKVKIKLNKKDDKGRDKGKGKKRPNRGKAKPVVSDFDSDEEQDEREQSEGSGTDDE
Chain of 72 kDa type IV collagenase (P08253 whole entry): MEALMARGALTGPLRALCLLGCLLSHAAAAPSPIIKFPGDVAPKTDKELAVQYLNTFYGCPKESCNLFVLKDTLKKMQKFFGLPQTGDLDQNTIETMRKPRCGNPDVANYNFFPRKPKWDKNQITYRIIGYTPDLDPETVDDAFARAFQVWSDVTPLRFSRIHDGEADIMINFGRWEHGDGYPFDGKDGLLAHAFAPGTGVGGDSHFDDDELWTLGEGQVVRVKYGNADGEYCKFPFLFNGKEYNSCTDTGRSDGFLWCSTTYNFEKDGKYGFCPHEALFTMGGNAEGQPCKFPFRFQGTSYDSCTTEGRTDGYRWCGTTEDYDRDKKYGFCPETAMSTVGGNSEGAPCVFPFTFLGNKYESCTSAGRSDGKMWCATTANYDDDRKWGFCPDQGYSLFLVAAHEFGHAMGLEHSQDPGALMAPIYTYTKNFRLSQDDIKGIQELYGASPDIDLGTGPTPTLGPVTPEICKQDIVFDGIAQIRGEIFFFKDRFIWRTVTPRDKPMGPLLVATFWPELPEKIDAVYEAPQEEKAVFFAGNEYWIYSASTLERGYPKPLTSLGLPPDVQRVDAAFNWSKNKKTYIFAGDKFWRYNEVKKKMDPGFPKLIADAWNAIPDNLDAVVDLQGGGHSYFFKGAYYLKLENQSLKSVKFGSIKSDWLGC

COc1ccc(N2CCN(CC(=O)c3ccc(O)c(C)c3O)CC2)cc1
AC50 [1]: 19.5 µM (active)

Cc1ccc(CNC(=O)COC(=O)Cn2nc(C)c([N+](=O)[O-])c2C)cc1
IC50 (Melanocortin receptor 4): 14.4 µM (inactive) | IC50 [2]: > 64.6 µM (inactive)

COc1ccc(-n2nc3c(N4CCC(C(=O)NCc5cccc(C)c5)CC4)nnc(C)c3c2C)cc1
IC50 (Prothrombin): 48.7 µM (active) | EC50 [3]: 12 µM (active) | AC50 [4]: 23.8 µM (active) | EC50 [5]: 6.99 µM (active) | AC50 (Paired box protein Pax-8): 5.58 µM (active) | IC50 [6]: 29.3 µM (active) | EC50 [7]: > 91.1 µM (inactive) | EC50 [8]: 9.83 µM (active) | EC50 [9]: > 91.1 µM (inactive) | IC50 [10]: > 100 µM (inactive)

S=c1[nH]nc2c3c4c(sc3ncn12)CCCC4
IC50 [11]: 3.15 µM (active) | IC50 [12]: > 99 µM (inactive) | IC50 [13]: > 99 µM (inactive) | IC50 [14]: > 100 µM (inactive) | IC50 [15]: > 99 µM (inactive) | IC50 [16]: 0.992 µM (active)

O=C1/C(=C/c2ccco2)Oc2c1ccc(O)c2CN1CCCCC1
AC50 (ORF 73): 14.5 µM (active) | EC50 [17]: 9.63 µM (active) | EC50 [18]: 18.4 µM (active)
